This passage reports inhibition and Activity results from ChEMBL document CHEMBL5335818, “A MassQL-Integrated Molecular Networking Approach for the Discovery and Substructure Annotation of Bioactive Cyclic Peptides” (J Nat Prod, 2024).

Test [1] concerns the target Vasopressin V1a receptor (Homo sapiens) (UniProt P37288). Nature of the test: Antagonist activity at V1A receptor (unknown origin) transfected in HEK293 cells assessed as inhibition of AVP-induced cell activation at 31.6 uM incubated for 16 mins by label-free DMR assay relative to control. The test is classed as functional, cell-based.
For test [2] the target is unchanged. Nature of the test: Activation of endogenous V1A receptor signaling in HEK293 cells at 0.1 to 31.6 uM incubated for 16 mins by label-free DMR assay. The test is classed as functional, cell-based. As to conditions: dose 0.1-31.6 µM.
The target is the same in test [3]. Nature of the test: Antagonist activity at V1A receptor (unknown origin) assessed as reduction in AVP-induced V1A receptor signaling. The test is classed as functional.
For test [4], the target named is Muscarinic acetylcholine receptor M3 (Homo sapiens) (UniProt P20309). The test can be described thus: Antagonist activity at endogenous muscarinic M3 receptor in HEK293 cells assessed as inhibition of carbachol-induced cell activation at 1 to 31.6 uM incubated for 16 mins by label-free DMR assay. The test is classed as functional, cell-based. To be noted: dose 1-31.6 µM.
Muscarinic acetylcholine receptor M3 (Homo sapiens), sequence (P20309 whole entry, looked up): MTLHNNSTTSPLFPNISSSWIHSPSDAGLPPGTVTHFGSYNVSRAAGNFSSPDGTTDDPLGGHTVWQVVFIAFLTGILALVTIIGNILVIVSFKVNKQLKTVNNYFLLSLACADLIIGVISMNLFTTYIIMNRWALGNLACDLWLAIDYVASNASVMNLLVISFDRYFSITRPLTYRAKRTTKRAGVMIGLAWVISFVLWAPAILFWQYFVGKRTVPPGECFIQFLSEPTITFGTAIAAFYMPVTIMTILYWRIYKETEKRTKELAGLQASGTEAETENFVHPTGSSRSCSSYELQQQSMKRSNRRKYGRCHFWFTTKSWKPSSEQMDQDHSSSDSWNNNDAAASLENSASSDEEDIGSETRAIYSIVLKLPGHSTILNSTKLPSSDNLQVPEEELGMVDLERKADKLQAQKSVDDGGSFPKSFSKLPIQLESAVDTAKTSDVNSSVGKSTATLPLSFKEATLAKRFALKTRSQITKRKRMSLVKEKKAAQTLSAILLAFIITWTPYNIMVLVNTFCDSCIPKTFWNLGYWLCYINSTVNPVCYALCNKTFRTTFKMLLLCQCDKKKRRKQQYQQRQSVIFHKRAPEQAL

Test [5] concerns the target Vasopressin V1a receptor (Homo sapiens) (UniProt P37288). The test can be described thus: Antagonist activity at V1A receptor (unknown origin) transfected in HEK293 cells assessed as inhibition of AVP-induced cell activation at 1 to 31.6 uM incubated for 16 mins by label-free DMR assay. Type of test: functional, cell-based. As to conditions: filed as antagonist, dose 1-31.6 µM.

For test [6] the target is unchanged. The test can be described thus: Activation of V1A receptor (unknown origin) mediated signaling transfected in HEK293 cells at 0.1 to 31.6 uM incubated for 16 mins by label-free DMR assay. To be noted: dose 0.1-31.6 µM. Type of test: functional, cell-based.

The source made the active and inactive calls. No cut-off for these calls is given here.

Vasopressin V1a receptor (Homo sapiens), sequence (P37288 whole entry, looked up): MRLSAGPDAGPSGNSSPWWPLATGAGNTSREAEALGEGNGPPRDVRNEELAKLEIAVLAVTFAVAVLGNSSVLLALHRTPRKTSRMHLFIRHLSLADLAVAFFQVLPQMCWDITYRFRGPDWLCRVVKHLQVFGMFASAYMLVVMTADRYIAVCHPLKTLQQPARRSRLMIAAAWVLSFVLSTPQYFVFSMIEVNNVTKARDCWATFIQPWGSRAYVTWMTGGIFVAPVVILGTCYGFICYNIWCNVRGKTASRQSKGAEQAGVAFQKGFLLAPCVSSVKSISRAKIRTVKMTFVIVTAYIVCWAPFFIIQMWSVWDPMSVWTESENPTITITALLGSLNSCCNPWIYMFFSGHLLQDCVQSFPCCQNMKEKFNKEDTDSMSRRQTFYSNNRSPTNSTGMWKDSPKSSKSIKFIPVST

For `CC(C)[C@@H]1NC(=O)[C@@H]2CCCN2C(=O)[C@H](Cc2ccoc2)NC(=O)[C@H](Cc2ccoc2)N(C)C1=O`, the inhibition (as a rule, the change of the read-out against control, counted positive when it falls) in test [1] came out at 22%. In addition, the result in test [2], in test [4] and in test [6] was inactive. In addition, the outcome in test [3] (filed as antagonist) and in test [5] was Active.

Take `CC(C)C[C@@H]1NC(=O)[C@H](Cc2ccoc2)N(C)C(=O)[C@H](C(C)C)NC(=O)[C@H](Cc2ccoc2)N(C)C1=O`: the result in test [3] was inactive.

Take `CC(C)C[C@@H]1NC(=O)[C@H](Cc2ccoc2)N(C)C(=O)[C@H](C(C)C)NC(=O)[C@@H]2CCCN2C1=O`: the result in test [3] was inactive.
